Reference: ChEMBL document CHEMBL1201862, “PubChem BioAssay data set” (2004)
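Interpolation was linear, between the two tested concentrations surrounding the appropriate level; five concentrations were tested over 48 hours in 96-well plates. Abbreviation: GI50, concentration required for 50% inhibition of growth.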 The source made the active and inactive calls. Cut-off read from the data, not from the text of the source: active = GI50 up to about 1.1 µM and inactive = higher.

Legend:
Test in all cases: NCI anticancer screen, dose series, 48 h
K562 = test system: K562
NCI-H23 = test system: NCI-H23
786-0 = test system: 786-0
SF-268 = test system: SF-268
OVCAR-8 = test system: OVCAR-8
SK-MEL-2 = test system: SK-MEL-2
DU-145 = test system: DU-145
Malme-3M = test system: Malme-3M
SK-MEL-5 = test system: SK-MEL-5
NCI-H226 = test system: NCI-H226
HCC 2998 = test system: HCC 2998
A549 = test system: A549
CCRF-CEM = test system: CCRF-CEM
U-251 = test system: U-251
ACHN = test system: ACHN
MOLT-4 = test system: MOLT-4
OVCAR-3 = test system: OVCAR-3
UO-31 = test system: UO-31
Hs-578T = test system: Hs-578T
M14 = test system: M14
MCF7 = test system: MCF7
BT-549 = test system: BT-549
PC-3 = test system: PC-3
SK-OV-3 = test system: SK-OV-3
SN12C = test system: SN12C
T47D = test system: T47D
MDA-MB-231 = test system: MDA-MB-231
RPMI-8226 = test system: RPMI-8226
COLO 205 = test system: COLO 205
HOP-62 = test system: HOP-62
OVCAR-5 = test system: OVCAR-5
HCT-116 = test system: HCT-116
NCI-H460 = test system: NCI-H460
RXF 393 = test system: RXF 393
UACC-257 = test system: UACC-257
LOX IMVI = test system: LOX IMVI
EKVX = test system: EKVX
MDA-MB-435 = test system: MDA-MB-435
NCI-H522 = test system: NCI-H522
SF-539 = test system: SF-539
HT-29 = test system: HT-29
A498 = test system: A498
HCT-15 = test system: HCT-15
SNB-75 = test system: SNB-75
SW-620 = test system: SW-620
CAKI-1 = test system: CAKI-1
SR = test system: SR
IGROV-1 = test system: IGROV-1
SF-295 = test system: SF-295
HL-60 = test system: HL-60
OVCAR-4 = test system: OVCAR-4
HOP-92 = test system: HOP-92
NCI/ADR-RES = test system: NCI/ADR-RES
SK-MEL-28 = test system: SK-MEL-28
SNB-19 = test system: SNB-19
KM12 = test system: KM12
UACC-62 = test system: UACC-62
TK-10 = test system: TK-10
MDA-N = test system: MDA-N

Measured: GI50

COc1cccc(CCNc2c(C#N)c3nc4ccccc4n3c3ccccc23)c1
0.423 µM: HCT-15
inactive: SF-268 2.06 µM | SK-MEL-2 > 41.6 µM | DU-145 2.29 µM | NCI-H226 1.58 µM | A549 1.33 µM | OVCAR-3 3.87 µM | UO-31 2.81 µM | M14 4.23 µM | SK-OV-3 1.18 µM | SN12C 3.19 µM | T47D 2.17 µM | MDA-MB-231 2.33 µM | HOP-62 10.5 µM | OVCAR-5 7 µM | EKVX 2.09 µM | OVCAR-4 2.79 µM | HOP-92 29.6 µM | SK-MEL-28 1.22 µM | TK-10 4.6 µM
active: K562 0.141 µM | NCI-H23 0.741 µM | 786-0 0.541 µM | OVCAR-8 0.807 µM | Malme-3M 0.239 µM | SK-MEL-5 0.186 µM | HCC 2998 0.643 µM | CCRF-CEM 0.736 µM | U-251 0.721 µM | ACHN 0.998 µM | MOLT-4 0.769 µM | Hs-578T 0.498 µM | MCF7 0.0775 µM | BT-549 0.618 µM | PC-3 1.11 µM | RPMI-8226 0.426 µM | COLO 205 0.447 µM | HCT-116 0.405 µM | NCI-H460 0.378 µM | RXF 393 0.607 µM | UACC-257 0.851 µM | LOX IMVI 0.63 µM | MDA-MB-435 0.118 µM | NCI-H522 0.063 µM | SF-539 0.548 µM | HT-29 0.337 µM | A498 0.592 µM | SNB-75 0.404 µM | SW-620 0.51 µM | CAKI-1 1.05 µM | SR 0.177 µM | IGROV-1 0.433 µM | SF-295 0.364 µM | HL-60 0.34 µM | NCI/ADR-RES 0.333 µM | SNB-19 0.787 µM | KM12 0.258 µM | UACC-62 0.316 µM

COc1cccc2c(Nc3ccc(S(=O)(=O)Nc4ncccn4)cc3)c3ccc([N+](=O)[O-])cc3nc12
24.7 µM: HCT-15
inactive: K562 23 µM | NCI-H23 72.1 µM | 786-0 23.6 µM | SF-268 > 100 µM | SK-MEL-2 89.9 µM | DU-145 19.5 µM | Malme-3M 12.9 µM | SK-MEL-5 54.5 µM | NCI-H226 38.7 µM | HCC 2998 67 µM | A549 > 100 µM | CCRF-CEM 9.82 µM | U-251 48.5 µM | ACHN 7.06 µM | MOLT-4 14.3 µM | OVCAR-3 > 100 µM | UO-31 5.66 µM | Hs-578T > 100 µM | M14 45.1 µM | MCF7 47.1 µM | BT-549 59.7 µM | PC-3 40.6 µM | SK-OV-3 54.6 µM | SN12C 92.7 µM | T47D 8.22 µM | MDA-MB-231 38.7 µM | RPMI-8226 8.67 µM | COLO 205 60.7 µM | MDA-N 54.5 µM | HOP-62 85.3 µM | OVCAR-5 > 100 µM | HCT-116 22.4 µM | NCI-H460 27.7 µM | RXF 393 60.8 µM | UACC-257 > 100 µM | LOX IMVI 30.6 µM | EKVX > 100 µM | MDA-MB-435 45.6 µM | NCI-H522 66.1 µM | SF-539 37.8 µM | HT-29 57.4 µM | A498 > 100 µM | SW-620 63.8 µM | CAKI-1 4.8 µM | SR 1.95 µM | IGROV-1 4.13 µM | SF-295 > 100 µM | HL-60 10.4 µM | OVCAR-4 > 100 µM | HOP-92 12.4 µM | SK-MEL-28 > 100 µM | SNB-19 > 100 µM | KM12 12.5 µM | UACC-62 9.12 µM | TK-10 > 100 µM
